# Literature values in patent publication US20040138299A1, “Solid pharmaceutical composition comprising 4-cyano-trifluoro-3(4-fluorophenyl-sulphonyl)-2hydroxy-methylpropiono-m toluidide and pvp” (priority 2001, published 2004).
# Conditions: conventional tablet doses above 300 mg
structure (smiles),measurement,value
"CC(O)(CS(=O)(=O)c1ccc(F)cc1)C(=O)Nc1ccc(C#N)c(C(F)(F)F)c1 (stereo not drawn) [bicalutamide, 4′-cyano-α′,α′,α′-trifluoro-3-(4-fluorophenylsulphonyl)-2-hydroxy-2-methylpropiono-m-toluidide]",systemic exposure at high dose,no further significant increase in systemic exposure
